Source: patent US4122184A, “Benzimidazole insecticides” (priority 1977, dated 1978)

Experiments:
Mexican Bean Beetle = Mexican Bean Beetle Test; assay type: in vivo, Epilachna varivestis (Coleoptera); details: 48 h
Description: Cuttings of four six-day old Bountiful snap bean plants containing two leaves with approximately 5 square inches of leaf surface, are placed in water. The leaves are sprayed to wetting with about 5-10 ml. of a formulation containing a pre-determined level of the test compound. Half of the formulation is sprayed on the top surface and half on the bottom surface of the leaf using a DeVilbiss atomizer at 10 psi held at a distance of about 18 inches from the leaf. After the leaves have dried, they are cut from the stem and placed separately in petri dishes. Ten third instar, nonmolting Mexican bean beetle larvae grown on Bountiful snap beans are placed on each leaf. Controls consist of two leaves sprayed with 5 ml. of a 500 ppm malathion formulation (reference standard), two leaves sprayed with the formulation without the active ingredient and two leaves are held as untreated controls. After 48 hours, a mortality count is made and the amount of feeding noted. Moribund larvae are counted as dead.

Southern Armyworm = Southern Armyworm Test; assay type: in vivo, Prodenia eridania (Lepidoptera); details: 48 h
Description: Ten uniform Southern armyworm larvae about 1-1.5 cm. in length, grown on Henderson lima beans, are placed on excized bean leaves in petri dishes. The bean leaves are obtained and sprayed with the insecticide in the same way as are the snap bean leaves in the Mexican bean beetle test. The reference standards in this instance are leaves sprayed with 5 ml. 100 ppm DDT solution. Mortality counts are made 48 hours after spraying and again moribund larvae are counted as dead. Missing larvae which have probably been eaten are considered alive. The same rating scale is used as in the Mexican bean beetle test.

Two-spotted Spider Mite = Two-spotted Spider Mite test; assay type: in vivo, Tetranychus urticae (Acarina); details: 48 h
Description: The procedure in this test is the same as that in the previous aphid test, except that about 100 two-spotted spider mites from a stock colony raised on squash plants are transferred to a cut squash cotyledon. The mortality is estimated 48 hours after spraying. The same rating scale is used.

Milkweed Bug = Milkweed Bug Test; assay type: in vivo, Oncopeltis fasciatus (Hemiptera); details: 48 h
How it was run: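 Ten chilled adult milkweed bugs per cage sprayed with 5 ml test formulation at 10 psi, then fed and watered. Mortality, counting moribund as dead, scored 48 h after spraying; 500 ppm malathion as reference, unsprayed cages as controls.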

Oriental Cockroach = experiment: Oriental Roach Test; assay type: in vivo, Blatta orientalis (Orthoptera); details: 24 h
How it was run: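 Ten late-instar (3-4 month) nymphs per cage, held at 70°-80° F., sprayed with 5 ml of insecticide formulation at a specified amount. Cockroaches kept unfed and unwatered; mortality counted 24 hours post-spray, with insects staying on the cage bottom after light shaking scored dead.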

Boll Weevil = Boll Weevil Test; assay type: in vivo, Anthonomus grandis (Coleoptera); details: 48 h
From the text: The procedure is identical to that employed for the Mexican bean beetle and the Southern armyworm, except that 10 adult boll weevils are placed on cotton leaves that have been dipped into formulations of the test compounds. The same rating scale is used.

Bean Leaf Beetle [1] = experiment: Field trial, stomach poison test; assay type: in vivo
How it was run: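 Treated foliage (dipped, or sprayed at 10 psi, then dried) is offered to counted insects in dishes. Scoring of mortality uses a 0–9 scale at three time points up to 72 h.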

Bean Leaf Beetle [2] = experiment: Field trial, contact poison test; assay type: in vivo
How it was run: (§1)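 Contact spray, atomizer 10 psi, arm's length, several concentrations; infested plants in water bottles, stems wrapped in cellucotton, plants spaced apart. Scored 24, 48, 72 h; scale 0–9 by percent mortality.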

[3] = test system: Red-Legged Grasshopper Adults; experiment: Field trial, contact poison test; assay type: in vivo
How it was run: as §1

[4] = test system: Southern Corn Rootworm Adults; experiment: Field trial, contact poison test; assay type: in vivo
How it was run: as §1

Yellow Mealworm Larvae = experiment: Field trial, topical application; assay type: in vivo; parameters: key: 0 = 0-10% mortality, 9 = 91-100% mortality (0-9 scale)
How it was run: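 1 μL benzimidazole solution of set microgram content applied topically to larvae or adults. Mortality read at 24, 48 and 72 h where applicable, rated 0-9 (0 = 0-10%, 9 = 91-100%); values are average mortality per concentration.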

## O=[N+]([O-])c1cc(C(F)(F)F)cc2[nH]c(C(F)(F)Cl)nc12 [L, 2-chlorodifluoromethyl-4-nitro-6-trifluoromethylbenzimidazole]
Mexican Bean Beetle; 50 ppm
  mortality rating: 8.5
Southern Armyworm; 500 ppm
  mortality rating: 1.5
Two-spotted Spider Mite; 5 ppm
  mortality rating: 7.5
Milkweed Bug; 100 ppm
  mortality rating: 4.5
Oriental Cockroach; 500 ppm
  mortality rating: 5.5
Boll Weevil; 10 ppm
  mortality rating: .5
Boll Weevil; 25 ppm
  mortality rating: 1.5
Bean Leaf Beetle [1]; 10 ppm
  average mortality rating: 1
Bean Leaf Beetle [1]; 25 ppm
  average mortality rating: 1
Bean Leaf Beetle [1]; 50 ppm
  average mortality rating: 0 (0-10 percent)
Bean Leaf Beetle [2]; 25 ppm
  average mortality rating: 0 (0-10 percent)
Bean Leaf Beetle [2]; 50 ppm
  average mortality rating: 4
Bean Leaf Beetle [2]; 100 ppm
  average mortality rating: 6
[3]; 25 ppm
  average mortality rating: 7
[3]; 50 ppm
  average mortality rating: 9 (91-100 percent mortality)
[4]; 25 ppm
  average mortality rating: 5
[4]; 50 ppm
  average mortality rating: 8
[4]; 100 ppm
  average mortality rating: 9 (91-100 percent mortality)
Yellow Mealworm Larvae; 0.03 μg/μl
  average mortality rating: 5
Yellow Mealworm Larvae; 0.07 μg/μl
  average mortality rating: 5
Yellow Mealworm Larvae; 0.15 μg/μl
  average mortality rating: 9 (91-100 percent mortality)

## mixture of benzyl 2,6-bis(trifluoromethyl)-4-nitro-1-benzimidazolecarboxylate and benzyl 2,5-bis(trifluoromethyl)-7-nitro-1-benzimidazolecarboxylate
Mexican Bean Beetle; 50 ppm
  mortality rating: 9 (91-100)
Mexican Bean Beetle; 100 ppm
  mortality rating: 9 (91-100)
Mexican Bean Beetle; 250 ppm
  mortality rating: 9 (91-100)
Mexican Bean Beetle; 500 ppm
  mortality rating: 9 (91-100)
Mexican Bean Beetle; 1000 ppm
  mortality rating: 9 (91-100)
Southern Armyworm; 100 ppm
  mortality rating: 2 (21-30)
Southern Armyworm; 500 ppm
  mortality rating: 6 (61-70)
Southern Armyworm; 1000 ppm
  mortality rating: 7 (71-80)
Two-spotted Spider Mite; 10 ppm
  mortality rating: 8 (81-90)
Two-spotted Spider Mite; 25 ppm
  mortality rating: 7 (71-80)
Two-spotted Spider Mite; 50 ppm
  mortality rating: 9 (91-100)
Two-spotted Spider Mite; 100 ppm
  mortality rating: 9 (91-100)
Two-spotted Spider Mite; 250 ppm
  mortality rating: 9 (91-100)
Two-spotted Spider Mite; 500 ppm
  mortality rating: 9 (91-100)
Two-spotted Spider Mite; 1000 ppm
  mortality rating: 9 (91-100)
Milkweed Bug; 10 ppm
  mortality rating: 0 (0-10)
Milkweed Bug; 25 ppm
  mortality rating: 0 (0-10)
Milkweed Bug; 50 ppm
  mortality rating: 7 (71-80)
Milkweed Bug; 250 ppm
  mortality rating: 8 (81-90)
Milkweed Bug; 500 ppm
  mortality rating: 8.5
Milkweed Bug; 1000 ppm
  mortality rating: 9 (91-100)
Oriental Cockroach; 50 ppm
  mortality rating: 1.5
Oriental Cockroach; 100 ppm
  mortality rating: 3 (31-40)
Oriental Cockroach; 250 ppm
  mortality rating: .5
Oriental Cockroach; 500 ppm
  mortality rating: 1.5
Oriental Cockroach; 1000 ppm
  mortality rating: 9 (91-100)
Boll Weevil; 10 ppm
  mortality rating: 4.5
Boll Weevil; 25 ppm
  mortality rating: 8.5
Boll Weevil; 50 ppm
  mortality rating: 7 (71-80)
Boll Weevil; 100 ppm
  mortality rating: 9 (91-100)
Boll Weevil; 250 ppm
  mortality rating: 9 (91-100)
Boll Weevil; 500 ppm
  mortality rating: 9 (91-100)
Boll Weevil; 1000 ppm
  mortality rating: 9 (91-100)
Bean Leaf Beetle [1]; 10 ppm
  average mortality rating: 0 (0-10 percent)
Bean Leaf Beetle [1]; 25 ppm
  average mortality rating: 1
Bean Leaf Beetle [1]; 50 ppm
  average mortality rating: 2
Bean Leaf Beetle [2]; 25 ppm
  average mortality rating: 0 (0-10 percent)
Bean Leaf Beetle [2]; 50 ppm
  average mortality rating: 2
Bean Leaf Beetle [2]; 100 ppm
  average mortality rating: 7
[3]; 25 ppm
  average mortality rating: 9 (91-100 percent mortality)
[3]; 50 ppm
  average mortality rating: 9 (91-100 percent mortality)
[4]; 25 ppm
  average mortality rating: 4
[4]; 50 ppm
  average mortality rating: 4
[4]; 100 ppm
  average mortality rating: 9 (91-100 percent mortality)
Yellow Mealworm Larvae; 0.03 μg/μl
  average mortality rating: 1
Yellow Mealworm Larvae; 0.07 μg/μl
  average mortality rating: 4
Yellow Mealworm Larvae; 0.15 μg/μl
  average mortality rating: 5

## mixture of phenyl 2,6-bis(trifluoromethyl)-4-nitro-1-benzimidazolecarboxylate and phenyl 2,5-bis(trifluoromethyl)-1-benzimidazolecarboxylate
Mexican Bean Beetle; 10 ppm
  mortality rating: 4 (41-50)
Mexican Bean Beetle; 25 ppm
  mortality rating: 3 (31-40)
Mexican Bean Beetle; 50 ppm
  mortality rating: 7 (71-80)
Mexican Bean Beetle; 100 ppm
  mortality rating: 9 (91-100)
Mexican Bean Beetle; 250 ppm
  mortality rating: 9 (91-100)
Mexican Bean Beetle; 500 ppm
  mortality rating: 9 (91-100)
Mexican Bean Beetle; 1000 ppm
  mortality rating: 9 (91-100)
Southern Armyworm; 250 ppm
  mortality rating: 1 (11-20)
Southern Armyworm; 500 ppm
  mortality rating: 1 (11-20)
Southern Armyworm; 1000 ppm
  mortality rating: 1 (11-20)
Two-spotted Spider Mite; 10 ppm
  mortality rating: 5.5
Two-spotted Spider Mite; 25 ppm
  mortality rating: 2 (21-30)
Two-spotted Spider Mite; 50 ppm
  mortality rating: 8 (81-90)
Two-spotted Spider Mite; 100 ppm
  mortality rating: 9 (91-100)
Two-spotted Spider Mite; 250 ppm
  mortality rating: 9 (91-100)
Two-spotted Spider Mite; 500 ppm
  mortality rating: 9 (91-100)
Two-spotted Spider Mite; 1000 ppm
  mortality rating: 9 (91-100)
Milkweed Bug; 250 ppm
  mortality rating: 1 (11-20)
Milkweed Bug; 500 ppm
  mortality rating: 9 (91-100)
Milkweed Bug; 1000 ppm
  mortality rating: 9 (91-100)
Oriental Cockroach; 50 ppm
  mortality rating: 0 (0-10)
Oriental Cockroach; 100 ppm
  mortality rating: .5
Oriental Cockroach; 250 ppm
  mortality rating: 7 (71-80)
Oriental Cockroach; 500 ppm
  mortality rating: 6.5
Oriental Cockroach; 1000 ppm
  mortality rating: 5 (51-60)
Boll Weevil; 10 ppm
  mortality rating: 1 (11-20)
Boll Weevil; 25 ppm
  mortality rating: 5.5
Boll Weevil; 50 ppm
  mortality rating: 8 (81-90)
Boll Weevil; 100 ppm
  mortality rating: 9 (91-100)
Boll Weevil; 250 ppm
  mortality rating: 9 (91-100)
Boll Weevil; 500 ppm
  mortality rating: 9 (91-100)
Boll Weevil; 1000 ppm
  mortality rating: 9 (91-100)
Bean Leaf Beetle [1]; 10 ppm
  average mortality rating: 1
Bean Leaf Beetle [1]; 25 ppm
  average mortality rating: 0 (0-10 percent)
Bean Leaf Beetle [1]; 50 ppm
  average mortality rating: 0 (0-10 percent)
Bean Leaf Beetle [2]; 25 ppm
  average mortality rating: 0 (0-10 percent)
Bean Leaf Beetle [2]; 50 ppm
  average mortality rating: 0 (0-10 percent)
Bean Leaf Beetle [2]; 100 ppm
  average mortality rating: 4
[3]; 25 ppm
  average mortality rating: 1
[3]; 50 ppm
  average mortality rating: 7
[4]; 25 ppm
  average mortality rating: 0 (0-10 percent)
[4]; 50 ppm
  average mortality rating: 3
[4]; 100 ppm
  average mortality rating: 7
Yellow Mealworm Larvae; 0.03 μg/μl
  average mortality rating: 3
Yellow Mealworm Larvae; 0.07 μg/μl
  average mortality rating: 3
Yellow Mealworm Larvae; 0.15 μg/μl
  average mortality rating: 6
